Test results: BindingDB's records for patent US11723908 (Suzhou Zanrong Pharma, 2023)

Biological target: Receptor tyrosine-protein kinase erbB-2 (Homo sapiens, UniProt P04626)
Assay: BT474 Cellular Assay (HER2 Inhibition)
Experimental: Inhibition of phosphor HER2 was determined by enzyme-linked immunosorbent assay (ELISA) in BT474 cells. BT474 cell line was purchased from ATCC (catalog number HTB-20). Human Phospho-ErbB2 ELISA kit was purchased from R&D systems (catalog number DYC1768).

Sequence of Receptor tyrosine-protein kinase erbB-2 (P04626 whole entry): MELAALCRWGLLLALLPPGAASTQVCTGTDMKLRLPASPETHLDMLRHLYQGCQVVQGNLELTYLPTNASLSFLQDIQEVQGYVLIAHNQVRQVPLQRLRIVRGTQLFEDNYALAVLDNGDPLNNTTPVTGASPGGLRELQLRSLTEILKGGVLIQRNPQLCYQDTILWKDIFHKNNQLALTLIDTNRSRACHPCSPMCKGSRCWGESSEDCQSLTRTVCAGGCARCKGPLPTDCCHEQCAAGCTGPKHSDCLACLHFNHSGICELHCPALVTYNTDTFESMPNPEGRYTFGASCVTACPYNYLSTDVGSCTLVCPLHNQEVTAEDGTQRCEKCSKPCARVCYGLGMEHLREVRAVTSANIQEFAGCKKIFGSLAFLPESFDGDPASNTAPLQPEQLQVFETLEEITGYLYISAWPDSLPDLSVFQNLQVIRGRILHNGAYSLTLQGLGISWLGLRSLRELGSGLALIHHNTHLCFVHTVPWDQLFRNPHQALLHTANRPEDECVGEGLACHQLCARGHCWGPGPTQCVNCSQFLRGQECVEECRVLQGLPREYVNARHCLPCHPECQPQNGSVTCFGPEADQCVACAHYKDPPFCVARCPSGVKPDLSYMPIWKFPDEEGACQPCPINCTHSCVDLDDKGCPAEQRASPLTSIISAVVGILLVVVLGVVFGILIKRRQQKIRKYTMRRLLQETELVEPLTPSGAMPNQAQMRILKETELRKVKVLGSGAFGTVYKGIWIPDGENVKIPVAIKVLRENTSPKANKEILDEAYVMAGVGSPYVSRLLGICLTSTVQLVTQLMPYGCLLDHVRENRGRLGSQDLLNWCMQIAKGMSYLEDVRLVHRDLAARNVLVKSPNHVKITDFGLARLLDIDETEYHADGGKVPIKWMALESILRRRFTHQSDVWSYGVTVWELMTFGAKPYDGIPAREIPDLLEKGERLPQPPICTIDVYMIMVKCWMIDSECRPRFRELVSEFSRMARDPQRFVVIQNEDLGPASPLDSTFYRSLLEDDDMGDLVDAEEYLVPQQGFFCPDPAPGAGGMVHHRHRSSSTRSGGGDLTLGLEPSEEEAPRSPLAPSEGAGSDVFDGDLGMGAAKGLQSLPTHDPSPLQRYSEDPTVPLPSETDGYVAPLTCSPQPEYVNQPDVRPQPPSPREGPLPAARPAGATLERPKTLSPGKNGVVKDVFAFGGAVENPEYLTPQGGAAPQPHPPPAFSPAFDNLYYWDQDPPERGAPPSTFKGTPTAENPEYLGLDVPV

IC50: 145 nM
SMILES: Cc1cc(Nc2ncnc3ccc(OC(F)(F)F)c(O[C@H]4CCN(C)CC4(F)F)c23)ccc1Oc1cc2ncnn2cn1 [US11723908, Example 73]
